In patent publication US11046691B1 (IDEAYA BIOSCIENCES, INC., priority 2018, dated 2021):

Molecular target: hMAT2A (Homo sapiens (Human), UniProt P31153)
Assay: Phosphate Sensor Fluorescence Assay (MAT2A enzyme inhibition)
Format: biochemical
Conditions: L-methionine 500 uM, ATP 500 uM, class symbols
In short: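 Recombinant MAT2A preincubated 15 min at room temperature with compound, then reacted 1 h at room temperature with 500 uM L-methionine and 500 uM ATP in Tris pH 7.5 buffer containing PNP/7-MEG.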

Chain of hMAT2A (P31153 whole entry): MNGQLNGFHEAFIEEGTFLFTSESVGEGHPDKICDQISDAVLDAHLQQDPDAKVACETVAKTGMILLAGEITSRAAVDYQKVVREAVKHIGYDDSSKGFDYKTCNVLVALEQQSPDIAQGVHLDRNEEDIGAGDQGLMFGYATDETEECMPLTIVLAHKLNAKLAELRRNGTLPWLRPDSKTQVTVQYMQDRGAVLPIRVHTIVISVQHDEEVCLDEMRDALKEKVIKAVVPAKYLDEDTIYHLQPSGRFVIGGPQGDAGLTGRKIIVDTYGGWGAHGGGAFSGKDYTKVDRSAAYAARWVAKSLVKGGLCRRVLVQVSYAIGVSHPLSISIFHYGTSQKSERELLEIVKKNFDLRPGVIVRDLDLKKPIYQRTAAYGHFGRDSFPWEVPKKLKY

SMILES	IC50 [nM]
CNc1nc(=O)n(-c2ccccc2)c2cc(Cl)c(C#N)cc12 [Example 190, 7-chloro-4-(methylamino)-2-oxo-1-phenylhydroquinazoline-6-carbonitrile]	1000 to 10000
CS(=O)(=O)Nc1nc(=O)n(-c2ccccc2)c2cc(Cl)ccc12 [Example 200, N-(7-chloro-2-oxo-1-phenyl-1,2-dihydroquinazolin-4-yl)methane-sulfonamide]	1000 to 10000
CN(C)c1nc(=O)n(-c2cccc(NS(=O)(=O)C3(C)CC3)c2)c2cc(Cl)ccc12 [Example 211]	500 to 1000
CCOC(=O)c1ccc2c(=O)[nH]c(=O)n(-c3ccccc3)c2c1 [Example 213, ethyl 2,4-dioxo-1-phenyl-1,3-dihydro-quinazoline-7-carboxylate]	1000 to 10000
C[C@@]1(O)CCN(c2nc(=O)n(-c3ccccc3)c3cc(Cl)ccc23)C1 [Example 217, 4-((3R)-3-hydroxy-3-methylpyrrolidin-1-yl)-7-chloro-1-phenylhydroquinazolin-2-one]	200 to 500
CNc1nc(=O)n(-c2ccccc2C#N)c2cc(Cl)ccc12 [Example 219, 2-(7-chloro-4-(methylamino)-2-oxo-quinazolin-1(2H)-yl)benzonitrile]	200 to 500
CN(C)C(=O)CN(C)c1nc(=O)n(-c2ccccc2)c2cc(Cl)ccc12 [Example 220, 2-((7-chloro-2-oxo-1-phenyl-1,2-dihydroquinazolin-4-yl)(methyl)amino)-N,N-dimethylacetamide]	1000 to 10000
CNC(=O)CN(C)c1nc(=O)n(-c2ccccc2)c2cc(Cl)ccc12 [Example 221, 2-((7-chloro-2-oxo-1-phenyl-1,2-dihydroquinazolin-4-yl)(methyl)amino)-,N-methylacetamide]	1000 to 10000

The remaining lines, values ahead:

IC50 [nM]	SMILES
< 200	O=c1nc(N2CC[C@H]2CO)c2ccc(Cl)cc2n1-c1ccccc1 [Example 172, (S)-7-chloro-4-(2-(hydroxymethyl)-azetidin-1-yl)-1-phenylquinazolin-2(1H)-one]
< 200	CNc1nc(=O)n(-c2cccc(C#N)c2C)c2cc(Cl)ccc12 [Example 173, 3-[7-chloro-4-(methylamino)-2-oxo-hydroquinazolinyl]-2-methylbenzene-carbonitrile]
< 200	CNC(=O)c1cccc(-n2c(=O)nc(NC)c3ccc(Cl)cc32)c1 [Example 175]
< 200	O=c1nc(N2CCCC2)c2ccc(C(F)(F)F)nc2n1-c1ccccc1Cl [Example 176, 1-(2-chlorophenyl)-4-(pyrrolictin-1-yl)-7-(trifluoromethyl)pyrido[2,3-d]pyrimidin-2(1H)-one]
< 200	CNc1nc(=O)n(-c2ccccc2Cl)c2nc(C(F)(F)F)ccc12 [Example 178, 1-(2-chlorophenyl)-4-(methylamino)-7-(trifluoromethyl)pyrido[2,3-d]pyrimidin-2(1H)-one]
< 200	CNc1nc(=O)n(-c2cccc(C#N)c2)c2nc(C(F)(F)F)ccc12 [Example 179, 3-[4-(methylamino)-2-oxo-7-(trifluoro-methyl)pyrido[2,3-d]pyrimidin-1(2H)-yl)benzonitrile]
< 200	CNc1nc(=O)n(-c2ccccc2C)c2nc(C(F)(F)F)ccc12 [Example 180, 4-(methylamino)-1-(2-methylphenyl)-7-(trifluoromethyl)pyrido[2,3-d]pyrimidin-2(1H)-one]
< 200	O=c1nc(N2CC[C@H](O)C2)c2ccc(C(F)(F)F)nc2n1-c1ccccc1Cl [Example 181, (S)-1-(2-chlorophenyl)-4-(3-hydroxy-pyrrolidin-1-yl)-7-(trifluoromethyl)-pyrido[2,3-d]pyrimidin-2(1H)-one]
< 200	N#Cc1cccc(-n2c(=O)nc(N3CC[C@H](O)C3)c3ccc(C(F)(F)F)nc32)c1 [Example 182, (S)-3-(4-(3-hydroxypyrrolidin-1-yl)-2-oxo-7-(trifluoromethyl)pyrido[2,3-d]pyrimidin-1(2H)-yl)benzonitrile]
< 200	Cc1ccccc1-n1c(=O)nc(N2CC[C@@H](O)C2)c2ccc(C(F)(F)F)nc21 [Example 183, (R)-4-(3-hydroxypyrrolidin-1-yl)-1-(o-tolyl)-7-(trifluoromethyl)pyrido[2,3-d]-pyrimidin-2(1H)-one]
< 200	CNc1nc(=O)n(-c2ccccc2)c2nc(C(F)(F)F)ccc12 [Example 184, 4-(methylamino)-1-phenyl-7-(trifluoromethyl)pyrido[2,3-d]-pyrimidin-2(1H)-one]
< 200	CNc1nc(=O)n(-c2ccccc2)c2cc(Cl)cc(OCCO)c12 [Example 185, 7-chloro-5-(2-hydroxyethoxy)-4-(methylamino)-1-phenylhydro-quinazolin-2-one]
< 200	O=c1nc(N2CCC2CO)c2ccc(Cl)cc2n1-c1ccccc1 (stereo not shown) [Example 186, 7-chloro-4-[2-(hydroxymethyl)azetidin-1-yl]-1-phenylhydroquinazolin-2-one]
200 to 500	O=c1nc(N2CC[C@@H]2CO)c2ccc(Cl)cc2n1-c1ccccc1 [Example 187, (R)-7-chloro-4-(2-(hydroxymethyl)-azetidin-1-yl)-1-phenylquinazolin-2(1H)-one]
200 to 500	CNc1nc(=O)n(-c2nccn2C)c2cc(Cl)ccc12 [Example 188]
< 200	CO[C@@H]1CCN(c2nc(=O)n(-c3ccccc3)c3cc(Cl)ccc23)C1 [Example 189, (R)-7-chloro-4-(3-methoxypyrrolidin-1-yl)-1-phenylquinazolin-2(1H)-one]
< 200	CO[C@H]1CCN(c2nc(=O)n(-c3ccccc3)c3cc(Cl)ccc23)C1 [Example 196, (S)-7-chloro-4-(3-methoxypyrrolidin-1-yl)-1-phenylquinazolin-2(1H)-one]
< 200	CN(Cc1ccccc1)c1nc(=O)n(-c2ccccc2)c2cc(Cl)ccc12 [Example 197, 7-chloro-4-[methylbenzylamino]-1-phenylhydroquinazolin-2-one]
< 200	COC(=O)C1CN(c2nc(=O)n(-c3ccccc3)c3cc(Cl)ccc23)C1 [Example 199, methyl 1-(7-chloro-2-oxo-1-phenyl-1,2-dihydroquinazolin-4-yl)azetidine-3-carboxylate]
< 200	NC1CCN(c2nc(=O)n(-c3ccccc3)c3cc(Cl)ccc23)C1 (stereo not shown) [Example 201, 4-(3-aminopyrrolidin-1-yl)-7-chloro-1-phenylquinazolin-2(1H)-one]
200 to 500	CC(=O)Nc1nc(=O)n(-c2ccccc2)c2cc(Cl)ccc12 [Example 203, N-(7-chloro-2-oxo-1-phenyl-1,2-dihydroquinazolin-4-yl)acetamide]
< 200	CNC(=O)C1CN(c2nc(=O)n(-c3ccccc3)c3cc(Cl)ccc23)C1 [Example 204, 1-(7-chloro-2-oxo-1-phenyl-1,2-dihydroquinazolin-4-yl)-N-methyl-azetidine-3-carboxamide]
< 200	CN(CC(F)F)c1nc(=O)n(-c2ccccc2)c2cc(Cl)ccc12 [Example 205, 4-[(2,2-difluoroethyl)methylamino]-7-chloro-1-phenylhydroquinazolin-2-one]
< 200	CNc1nc(=O)n(-c2ccn[nH]2)c2cc(Cl)ccc12 [Example 214, 7-chloro-4-(methylamino)-1-pyrazol-5-ylhydroquinazolin-2-one]
< 200	CNc1nc(=O)n(-c2ccccc2Cl)c2cc(Cl)ccc12 [Example 218, 7-chloro-1-(2-chlorophenyl)-4-(methylamino)quinazolin-2(1H)-one]
< 200	O=c1nc(N2CC3CC3C2)c2ccc(Cl)cc2n1-c1ccccc1 (stereo not shown) [Example 222, 4-(3-azabicyclo[3.1.0]hex-3-yl)-7-chloro-1-phenylhydroquinazolin-2-one]
< 200	CC1CCN1c1nc(=O)n(-c2ccccc2)c2cc(Cl)ccc12 (stereo not shown) [Example 223, 7-chloro-4-(2-methylazetidin-1-yl)-1-phenylhydroquinazolin-2-one]

Same assay, conditions: L-methionine 500 uM, ATP 500 uM, numeric bound

IC50 [nM]	SMILES
> 10000	O=c1ncc2ccc(Cl)cc2n1-c1ccccc1 [Example 191, 7-chloro-1-phenylhydroquinazolin-2-one]
> 10000	CNc1nc(=O)n(-c2ccccc2)c2cc(C)cnc12 [Example 192, 7-methyl-4-(methylamino)-1-phenyl-pyrido[3,2-d]pyrimidin-2(1H)-one]
> 10000	Cc1cnc2c(=O)[nH]c(=O)n(-c3ccccc3)c2c1 [Example 193, 7-methyl-1-phenylpyrido[3,2-d]-pyrimidine-2,4(1H,3H)-dione]
> 10000	O=C(O)[C@@H]1CCCN1c1nc(=O)n(-c2ccccc2)c2cc(Cl)ccc12 [Example 195, (2S)-1-(7-chloro-2-oxo-1-phenylhydro-quinazolin-4-yl)pyrrolidine-2-carboxylic acid]
> 10000	CNc1nc(=O)n(-c2ccccc2)c2cc(Cl)cc(OC3COC3)c12 [Example 202, 7-chloro-4-(methylamino)-5-oxetan-3-yloxy-1-phenylhydroquinazolin-2-one]
> 10000	O=C1CCN1c1nc(=O)n(-c2ccccc2)c2cc(Cl)ccc12 [Example 206, 7-chloro-4-(2-oxoazetidin-1-yl)-1-phenylhydroquinazolin-2-one]
> 10000	CNc1nc(=O)n(-c2ccccc2)c2cc(Cl)cc(-n3cccn3)c12 [Example 208, 7-chloro-4-(methylamino)-1-phenyl-5-(1H-pyrazol-1-yl)quinazolin-2(1H)-one]
> 10000	CNc1nc(=O)n(-c2ccccc2)c2cc(Cl)cc(-n3nccn3)c12 [Example 209, 7-chloro-4-(methylamino)-1-phenyl-5-(1,2,3-triazol-2-yl)quinazolin-2(1H)-one]
> 10000	O=c1[nH]c(=O)n(-c2nccc(O)n2)c2cc(Cl)ccc12 [Example 210, 7-chloro-1-(4-hydroxypyrimidin-2-yl)-1,3-dihydroquinazoline-2,4-dione]
> 10000	O=c1[nH]c(=O)n(-c2ccccc2)c2cc(CO)ccc12 [Example 212, 7-(hydroxymethyl)-1-phenyl-1,3-dihydroquinazoline-2,4-dione]
> 10000	Cn1ccnc1-n1c(=O)[nH]c(=O)c2ccc(Cl)cc21 [Example 215, 7-chloro-1-(1-methylimidazol-2-yl)-1,3-dihydroquinazoline-2,4-dione]
